The source of these data is article PMC11257449 (bioRxiv, 2024).

For the experiment, the target named is AmpC β-lactamase (Escherichia coli, UniProt P00811). The class given is biochemical. Conditions: for Km: AmpC substrate.
AmpC β-lactamase, sequence (P00811 20-377): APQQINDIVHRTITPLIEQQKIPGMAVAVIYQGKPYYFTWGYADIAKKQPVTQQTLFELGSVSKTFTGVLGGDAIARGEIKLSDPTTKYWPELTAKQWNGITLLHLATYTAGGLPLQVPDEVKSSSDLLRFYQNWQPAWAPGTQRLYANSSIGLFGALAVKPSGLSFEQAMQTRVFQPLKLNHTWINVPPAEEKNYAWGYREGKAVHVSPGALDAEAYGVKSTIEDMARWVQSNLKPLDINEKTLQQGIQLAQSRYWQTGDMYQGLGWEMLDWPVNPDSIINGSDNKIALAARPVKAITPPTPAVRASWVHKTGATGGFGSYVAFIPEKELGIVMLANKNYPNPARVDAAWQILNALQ

Turning to `O=C(Cc1cccs1)N[C@@H]1C(=O)N2C(C(=O)O)=C(/C=C/c3ccc([N+](=O)[O-])cc3[N+](=O)[O-])CS[C@H]12` [nitrocefin], the Km (commonly the substrate concentration at which the rate is half of its maximum) was 180 µM.

Turning to `O=C(Cc1cccs1)N[C@@H]1C(=O)N2C(C(=O)O)=C(CSc3ccc([N+](=O)[O-])c(C(=O)O)c3)CS[C@H]12` [CENTA], the Km is 27.6 µM.

As to `O=S(=O)(Nc1ccc(F)c2cnccc12)c1cc(Cl)cc(Cl)c1O` [Z6615020275], affinity (Fig. 1 legend, crystallised inhibitors) was put at a Ki of 2 µM.
